{
  "source": "patent US20250114331A1",
  "about": "“CONCURRENT TARGETING OF ONCOGENIC PATHWAYS TO ENHANCE CHEMOTHERAPY AND IMMUNOTHERAPY” (THE JOHNS HOPKINS UNIVERSITY, priority 2021, published 2025)",
  "key": {"[1]": {"system": "MB49, UPPL595 and BBN975", "assay": "FABP4 expression and lipid droplet quantification after VP, mouse UCB cell lines", "format": "cell-based", "procedure": "RNA extraction and quantitative reverse transcriptase polymerase chain reaction (Q-RT-PCR). Total RNA from cell lines was isolated using the RNeasy Plus Mini Kit (Qiagen, Germantown, USA), according to the manufacturer's protocol. This total RNA was converted to cDNA using the SuperScript III First-Strand Synthesis System (Life technologies, Carlsbad, USA), which was then used as a template for qRT-PCR. qRT-PCR was performed using the Fast SYBR Green Master Mix (Thermo Fisher Scientific, Waltham, USA) on a Quant studio 6 Fast Real-Time PCR System (Life technologies) in triplicate. SDS software (Applied Biosystems) was used to determine cycle threshold (Ct) values. The expression levels were quantified relative to β-actin using the 2-ΔΔCt method. YAP1 influences the accumulation of lipid droplets in cancer cells. […] Therefore, apart from investigating the altered regulation of intracellular signaling cascades, the present inventors also studied cellular metabolism in response to YAP1 modulation. […] It was reported that FABP4 is a critical molecule in accumulation of lipid droplets in the intracellular compartments (45). […] As increased amount of L-lactate correlated with more glycolysis and poor prognosis of cancer (46), the present inventors quantified L-lactate in mouse and human UCB cells with YAP1 modulation."}, "[2]": {"system": "H1299 and H1437 cells", "assay": "qRT-PCR of YAP1 and STAT3 pathway genes after drug treatment for 72 hours", "format": "cell-based, human", "procedure": "qRT-PCR. The mRNA expression level of each gene was determined by qRT-PCR. […] We quantified the β-actin mRNA level to normalize the expression levels of the targeted genes. Each sample was tested in triplicate and run three times. Each graph shown in our figures indicates the average mRNA expression level of targeted genes compared with the β-actin expression level, with standard error of mean. To determine doses of these drugs that are effective for pathway inhibition, H1299 and H1437 cells were treated with verteporfin or S3I-201 for 72 hours."}, "[3]": {"system": "T24, BFTC905 and BFTC909", "assay": "Lipid droplet quantification after VP, human UCB cell lines", "format": "cell-based", "conditions": "VP treated", "excerpt": "YAP1 influences the accumulation of lipid droplets in cancer cells. […] Therefore, apart from investigating the altered regulation of intracellular signaling cascades, the present inventors also studied cellular metabolism in response to YAP1 modulation. […] It was reported that FABP4 is a critical molecule in accumulation of lipid droplets in the intracellular compartments (45). […] It was also observed that when the culture media was supplemented with oleic acid (commonly used as an inducer for lipid droplet formation), there is an increase accumulation of lipid droplets in the YAP1 expressing cells compared to the KD cells (FIG. 29C). […] As increased amount of L-lactate correlated with more glycolysis and poor prognosis of cancer (46), the present inventors quantified L-lactate in mouse and human UCB cells with YAP1 modulation."}, "[4]": {"system": "UPPL 595 cells", "assay": "Wound healing", "format": "cell-based, mouse", "conditions": "VP treated versus control cells"}, "[5]": {"system": "H1299 xenografts", "assay": "H1299 xenograft treatment", "format": "in vivo, NSG mice", "conditions": "verteporfin 50 mg/kg i.p. three times a week; S3I-201 5 mg/kg i.p. every day", "excerpt": "For therapeutic experiments, 4- to 5-week-old NOD/SCID/IL2Ry−/− (NSG) mice were obtained from the Johns Hopkins Medical Institute's (Baltimore, MD) animal care facility. We injected H1299 cells (1×106) and H1437 cells (1×106), which were suspended in the mixture as described above, subcutaneously into both flanks. For the patient-derived xenograft (PDX) models, 13 PDX blocks (CTG0162, 0178, 0502, 0848, 1309, 1351, 1358, 1361, 1762, 1885, 2017, 2481, and 2708) were obtained from Champion Oncology. All these PDXs were established from primary lung adenocarcinoma tumors. The tumor tissues were cut into 4×2 mm pieces and implanted in the subcutaneous spaces of both flanks. When tumor volumes reached to 200+50 mm3, mice were randomly assigned to six experimental groups [control, chemo (cisplatin+gemcitabine), chemo+verteporfin, chemo+S3I-201, “all” (cisplatin+gemcitabine+verteporfin+S3I-201), and verteporfin+S3I-201] at 5 mice per group. Cisplatin (Sigma-Aldrich; #P4394), gemcitabine (Medkoo; #100410), S3I-201 (MedKoo; #202541), and verteporfin (Sigma-Aldrich; #1711461) were used to treat the mice. Cisplatin (2.5 mg/kg) and gemcitabine (120 mg/kg) were administrated via intraperitoneal injection once a week (22). […] Each tumor volume was measured every 3 days. Therapeutic efficacy was evaluated from percentage change of the tumor volume compared with the tumor size before treatment."}, "[6]": {"system": "MB 49, UPPL595 and BBN975", "assay": "Cell proliferation, sphere formation and RT-qPCR of CSC markers in VP treated mouse UCB cell lines", "format": "cell-based", "conditions": "1 μM", "procedure": "Cell viability assay. Cell proliferation and viability were evaluated using alamarBlue™ Cell Viability Reagent (ThermoFischer Scientific). For cell proliferation assay, after cells (5×10^3/well) were seeded into 96-well plates with culture media containing 10% FBS, the optical density of each well was measured at desired time interval, following the manufacturers protocol. The absorbance was measured by a Spectra Max 250 Plate Reader (Molecular Devices). Cell viability were calculated as percentage over control. Sphere formation assay. Sphere formation was induced by culturing cells (2×10^4/well) in DMEM/Ham's F12 50/50 Mix (Mediatech) supplemented with B-27 (Life Technologies), 20 ng/mL FGF-basic (Peprotech), 20 ng/mL EGF (Peprotech). Cell culture was performed in ultra-low attachment 6 well plates (Corning, Lowell, USA) for 10 days. The medium was replaced every other day. Sphere formation was evaluated using the inverted phase-contrast microscope. RNA extraction and quantitative reverse transcriptase polymerase chain reaction (Q-RT-PCR). Total RNA from cell lines was isolated using the RNeasy Plus Mini Kit (Qiagen, Germantown, USA), according to the manufacturer's protocol. […] The expression levels were quantified relative to β-actin using the 2−ΔΔCt method."}, "[7]": {"system": "colorectal cancer cells", "conditions": "in mice and in cells cultured under hypoxic and nutrient-deprived conditions; cited from earlier work"}},
  "note": "Where two headings read alike, the source gives them in different places.",
  "data": [
    {"smiles": "C=Cc1c(C)c2cc3nc(cc4[nH]c(cc5nc(cc1[nH]2)C(C)=C5CCC(=O)O)c(CCC(=O)OC)c4C)[C@@]1(C)C3=CC=C(C(=O)OC)[C@H]1C(=O)OC", "note": "[verteporfin, 3-[(23S,24R)-14-ethenyl-5-(3-methoxy-3-oxopropyl)-22,23-bis(methoxycarbonyl)-4,10,15,24-tetramethyl-25,26,27,28-tetraazahexacyclo[16.6.1.13,6.18,11.113,16.019,24]octacosa-1,3,5,7,9,11(27),12,14,16,18(25),19,21-dodecaen-9-yl]propanoic acid]", "values": [
      {"measurement": "expression level of FABP4", "setting": "[1]", "value": "significantly downregulated"},
      {"measurement": "mRNA expression of YAP1 and downstream targets CTGF and CYR61", "setting": "[2]", "value": "suppressed mRNA expressions of YAP1 and its downstream targets, such as CTGF and CYR61, in a dose-dependent manner"},
      {"measurement": "mRNA expression of YAP1 and downstream targets CTGF and CYR61", "setting": "[2]; listed as Verteporfin", "value": "suppressed mRNA expression of YAP1, and its downstream targets, CTGF and CYR61, as the drug concentration was increased"},
      {"measurement": "accumulation of intracellular lipid droplets", "setting": "[3]", "value": "decreases the accumulation of intracellular lipid droplets"},
      {"measurement": "wound closure", "setting": "[4]", "value": "significant difference in wound closure"},
      {"measurement": "tumor growth", "setting": "[5]", "value": "inhibited growth"},
      {"measurement": "cancer stemness (cell proliferation, sphere formation, CSC markers)", "setting": "[6]", "value": "inhibit the development of cancer stemness"},
      {"measurement": "killing of colorectal cancer cells by protein oligomer accumulation", "setting": "[7]", "value": "selectively killed colorectal cancer cells"}
    ]}
  ]
}
